The numbers were not newly measured in US20230181442A1, “METHOD FOR DYEING KERATIN MATERIAL, COMPRISING THE USE OF AN ORGANOSILICON COMPOUND, HYALURONIC ACID (SALT), A DYEING COMPOUND AND A POST-TREATMENT AGENT” (Henkel AG & Co. KGaA, priority 2020, published 2023), which cites them from elsewhere.

For this series the following is noted: for solubility in water: 25° C.

Consider `O=S(=O)(O)c1ccc(N=Nc2c(O)ccc3ccccc23)cc1` [Acid Orange 7, 4-[(2-hydroxy-1-naphthyl)azo]benzene sulfonate], for which the solubility in water entry was “more than 7 g/L”.
Turning to `O=[N+]([O-])c1cc([N+](=O)[O-])c2ccc(S(=O)(=O)O)cc2c1O` [Acid Yellow 9, 8-hydroxy-5,7-dinitro-2-naphthalenesulfonic acid], the solubility in water entry is “above 40 g/L”.
In the case of `CCN(Cc1cccc(S(=O)(=O)O)c1)c1ccc(C(=C2C=CC(=[N+](CC)Cc3cccc(S(=O)(=O)O)c3)C=C2)c2ccccc2S(=O)(=O)[O-])cc1` [Acid Blue 9], the solubility in water result is recorded as “more than 20 wt. %”.
Take `O=C(O)C1=NN(c2ccc(S(=O)(=O)O)cc2)C(=O)C1N=Nc1ccc(S(=O)(=O)O)cc1` (stereo not shown) [Acid Yellow 23, 4,5-dihydro-5-oxo-1-(4-sulfophenyl)-4-((4-sulfophenyl)azo)-1H-pyrazole-3-carboxylic acid]: the “solubility in water (in words)” value (water at 25° C.) is given as “highly soluble”.
